Test results taken from ChEMBL document CHEMBL1201862, “PubChem BioAssay data set” (2004).
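Interpolation was linear, between the two tested concentrations surrounding the appropriate level; five concentrations were tested over 48 hours in 96-well plates. Abbreviation: GI50, concentration required for 50% inhibition of growth.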 Active and inactive are the calls of the source. Cut-off read from the data, not from the text of the source: active = GI50 up to about 1.1 µM and inactive = higher.

Columns and labels:
Experiment in all cases: NCI-60 cell line screen, 48 h
[1] = test system: K562
[2] = test system: SN12C
[3] = test system: TK-10
[4] = test system: HT-29
[5] = test system: MCF7
[6] = test system: PC-3
[7] = test system: MDA-N
[8] = test system: MDA-MB-231
[9] = test system: LOX IMVI
[10] = test system: BT-549
[11] = test system: A549
[12] = test system: HOP-92
[13] = test system: OVCAR-3
[14] = test system: T47D
[15] = test system: IGROV-1
[16] = test system: MOLT-4
[17] = test system: SK-OV-3
[18] = test system: NCI-H522
[19] = test system: SR
[20] = test system: SW-620
[21] = test system: SNB-19
[22] = test system: EKVX
[23] = test system: UACC-257
[24] = test system: OVCAR-4
[25] = test system: RPMI-8226
[26] = test system: SK-MEL-28
[27] = test system: U-251
[28] = test system: OVCAR-5
[29] = test system: HCC 2998
[30] = test system: SF-539
[31] = test system: 786-0
[32] = test system: NCI-H23
[33] = test system: CCRF-CEM
[34] = test system: Hs-578T
[35] = test system: KM12
[36] = test system: SK-MEL-2
[37] = test system: RXF 393
[38] = test system: COLO 205
[39] = test system: NCI/ADR-RES
[40] = test system: ACHN
[41] = test system: SNB-75
[42] = test system: HCT-116
[43] = test system: CAKI-1
[44] = test system: M14
[45] = test system: NCI-H460
[46] = test system: SF-295
[47] = test system: HOP-62
[48] = test system: UO-31
[49] = test system: UACC-62
[50] = test system: OVCAR-8
[51] = test system: MDA-MB-435
[52] = test system: DU-145
[53] = test system: SF-268
[54] = test system: HCT-15
[55] = test system: SK-MEL-5
[56] = test system: HL-60
[57] = test system: NCI-H226

CNC1C(O)C(NC)C2OC3(O)C(=O)CC(C)OC3OC2C1O (stereo not given)
GI50 [1]: > 100 µM (inactive) | GI50 [2]: > 100 µM (inactive) | GI50 [3]: > 100 µM (inactive) | GI50 [4]: > 100 µM (inactive) | GI50 [5]: > 100 µM (inactive) | GI50 [6]: > 100 µM (inactive) | GI50 [7]: > 100 µM (inactive) | GI50 [8]: > 100 µM (inactive) | GI50 [9]: > 100 µM (inactive) | GI50 [10]: > 100 µM (inactive) | GI50 [11]: > 100 µM (inactive) | GI50 [12]: > 100 µM (inactive) | GI50 [13]: > 100 µM (inactive) | GI50 [14]: > 100 µM (inactive) | GI50 [15]: > 100 µM (inactive) | GI50 [16]: > 100 µM (inactive) | GI50 [17]: > 100 µM (inactive) | GI50 [18]: > 100 µM (inactive) | GI50 [19]: > 100 µM (inactive) | GI50 [20]: > 100 µM (inactive) | GI50 [21]: > 100 µM (inactive) | GI50 [22]: > 100 µM (inactive) | GI50 [23]: > 100 µM (inactive) | GI50 [24]: > 100 µM (inactive) | GI50 [25]: > 100 µM (inactive) | GI50 [26]: > 100 µM (inactive) | GI50 [27]: > 100 µM (inactive) | GI50 [28]: > 100 µM (inactive) | GI50 [29]: > 100 µM (inactive) | GI50 [30]: > 100 µM (inactive) | GI50 [31]: > 100 µM (inactive) | GI50 [32]: > 100 µM (inactive) | GI50 [33]: > 100 µM (inactive) | GI50 [34]: > 100 µM (inactive) | GI50 [35]: > 100 µM (inactive) | GI50 [36]: > 100 µM (inactive) | GI50 [37]: > 100 µM (inactive) | GI50 [38]: > 100 µM (inactive) | GI50 [39]: > 100 µM (inactive) | GI50 [40]: > 100 µM (inactive) | GI50 [41]: > 100 µM (inactive) | GI50 [42]: > 100 µM (inactive) | GI50 [43]: > 100 µM (inactive) | GI50 [44]: > 100 µM (inactive) | GI50 [45]: > 100 µM (inactive) | GI50 [46]: > 100 µM (inactive) | GI50 [47]: > 100 µM (inactive) | GI50 [48]: > 100 µM (inactive) | GI50 [49]: > 100 µM (inactive) | GI50 [50]: > 100 µM (inactive) | GI50 [51]: > 100 µM (inactive) | GI50 [52]: > 100 µM (inactive) | GI50 [53]: > 100 µM (inactive) | GI50 [54]: > 100 µM | GI50 [55]: > 100 µM (inactive) | GI50 [56]: > 100 µM (inactive) | GI50 [57]: > 100 µM (inactive)

CC1=CC(C)C(O)C(C)/C=C\C(O)C/C=C(/C)C(=O)CC(O)C(C)\C=C/C=C\C=C/C(=O)NC2=C(O)C(=O)c3c(cc(C)c(O)c3C1=O)C2=O (stereo not given)
GI50 [2]: > 100 µM (inactive) | GI50 [3]: > 100 µM (inactive) | GI50 [4]: 56.4 µM (inactive) | GI50 [5]: 25.8 µM (inactive) | GI50 [6]: > 100 µM (inactive) | GI50 [7]: > 100 µM (inactive) | GI50 [8]: > 100 µM (inactive) | GI50 [9]: > 100 µM (inactive) | GI50 [10]: > 100 µM (inactive) | GI50 [11]: > 100 µM (inactive) | GI50 [12]: > 100 µM (inactive) | GI50 [13]: > 100 µM (inactive) | GI50 [14]: > 100 µM (inactive) | GI50 [15]: 74.8 µM (inactive) | GI50 [16]: 71.1 µM (inactive) | GI50 [18]: > 100 µM (inactive) | GI50 [19]: 31.9 µM (inactive) | GI50 [20]: > 100 µM (inactive) | GI50 [21]: > 100 µM (inactive) | GI50 [22]: > 100 µM (inactive) | GI50 [23]: > 100 µM (inactive) | GI50 [24]: > 100 µM (inactive) | GI50 [25]: > 100 µM (inactive) | GI50 [26]: > 100 µM (inactive) | GI50 [27]: > 100 µM (inactive) | GI50 [28]: > 100 µM (inactive) | GI50 [29]: 86.1 µM (inactive) | GI50 [30]: 62.1 µM (inactive) | GI50 [31]: > 100 µM (inactive) | GI50 [32]: > 100 µM (inactive) | GI50 [33]: 69.2 µM (inactive) | GI50 [34]: 46 µM (inactive) | GI50 [35]: 56.2 µM (inactive) | GI50 [36]: > 100 µM (inactive) | GI50 [38]: > 100 µM (inactive) | GI50 [39]: > 100 µM (inactive) | GI50 [40]: > 100 µM (inactive) | GI50 [41]: 25 µM (inactive) | GI50 [42]: 58.1 µM (inactive) | GI50 [43]: > 100 µM (inactive) | GI50 [44]: > 100 µM (inactive) | GI50 [45]: > 100 µM (inactive) | GI50 [46]: > 100 µM (inactive) | GI50 [47]: > 100 µM (inactive) | GI50 [48]: > 100 µM (inactive) | GI50 [49]: 97.7 µM (inactive) | GI50 [50]: > 100 µM (inactive) | GI50 [51]: > 100 µM (inactive) | GI50 [52]: 76.6 µM (inactive) | GI50 [53]: 94.4 µM (inactive) | GI50 [54]: > 100 µM | GI50 [55]: 91 µM (inactive) | GI50 [56]: > 100 µM (inactive)
